The source of these data is EP0315782A2, “Method for the production of proteins” (priority 1987, dated 1989).

What all share (format): cell-based, chinesische Hamster
Experiment [1] concerns CHO-Zellen. Put plainly: t-PA production in transformed CHO cells, medium with 7.5% FKS, supernatant, direct chromogenic assay (DCA). Conditions: for Stimulierung der t-PA-Produktion: after 24 h. The text has this: (§1) Der Vektor für die t-PA-Produktion wurde in einem Subklon, CHO-K1-DUX B11, integriert (Urlaub et al., Proceedings of the National Academy of Science, USA, 77: 4216-4220, 1980). Diese Zell-Linie, eine Dihydrofolat Reduktase negative Mutante (DHFR-), ist für eine DHFR-abhängige Selektion der transfizierten Zellklone geeignet. Der Vektor für die humane c-DNA kann ein bekannter Plasmid-Vektor pBR-322 oder deren Abkömmling von Escherichia coli sein. Die Promotorregion für das in Frage kommende Gen und für das DHFR-Gen stammt aus SV 40 und die Terminationsregion für beide Gene von einem Hepatitis B-Oberflächenantigen. In den Beispielen wurden CHO-K1-DUX B11-Zellen, die durch die Plasmide pETPER oder pEPEFR transformiert sind, verwendet (siehe EP-A 0117059).
(§2) Die Zellkulturen werden bei 37°C in einem Hereaus-Brutschrank inkubiert und mit einem Kohlendioxid-Luftgemisch von 7,5% CO₂ in einer relativen Luftfeuchtigkeit von 100% belüftet. Je nach Verfahrensansatz werden unterschiedliche Kulturgefäße benutzt: Spinnergefäße für 100-1000 ml Medium, Roux-Schalen (Nunc) 175 cm² (70-100 ml Medium), 75 cm² (30-50 ml Medium), 25 cm² (7-10 ml Medium) und Mehrfachkulturschalen von Costar mit 2 cm² für 1 ml Kulturen. Für die Stammhaltung werden die Zellen in einer Dichte von 0,2-0,3 x 10⁶ Zellen/ml eingesetzt und alle 2-3 Tage subkloniert.
(§3) Die Protein-Produktion stimulierenden Substanzen können zu den verschiedenen Zeitpunkten jeweils in einer 1:100 Verdünnung zugegeben werden, d.h. sie wurden zuerst in Medium gelöst oder, wenn sie schwerlöslich sind, erst in Äthylalkohol gelöst und danach in Medium zugesetzt und dann das diese Substanz enthaltende Medium dem zellenthaltenden Medium im Verhältnis 1:100 v/v zugegeben.
(§4) In den folgenden Beispielen wurden, um die Stimulierung der t-PA-Synthese hervorzurufen, Zellen einer exponentiell wachsenden Kultur entnommen und in Plastikröhrchen (Falcon) 10 Min. bei 1000 x g in einer Beckmann T 3-6 Zentrifuge abzentrifugiert. Nach Dekantieren des Überstandes wurde das Zellpellet mit frischem Medium resuspendiert.
Für die Produktion von t-PA in serumhaltigem Medium wurde als frisches Medium F12/DMEM + 7,5% FKS + Gentamycin verwendet. Die resultierende Suspension kann in 2 cm² 24 Wells-Platten bei einer Zelldichte von 0,2-0,3 x 10⁶ Zellen/ml angesetzt werden.
(§5) Aliquots von Zellüberständen und Zellextrakten wurden zu verschiedenen Zeitpunkten abgenommen bzw. hergestellt. Die Messung der Proben erfolgte entweder sofort oder nach Aufbewahrung bei -20°C mit folgenden Methoden:
Von dem synthetischen Peptidsubstrat S-2288 (D-H-Ile-Pro-Arg-p-Nitroanilin) der Firma Kabi Diagnostica wird durch das t-PA p-Nitroanilin als Reaktionsprodukt gebildet. Die Aktivität von t-PA ist zur Bildung von p-Nitroanilin proportional, die bei […], 37°C, gemessen wird.
Die spektrophotometrische Bestimmung der Enzymkinetik wurde mit einem ACP-5010-Analysengerät der Firma Eppendorf automatisch durchgeführt.
Die Aktivität des Enzyms wurde anhand dieses vorgegebenen Standards berechnet. Eine t-PA-Standardreihe von 1-15 µg/ml wurde mit einem Laborstandard hergestellt, der zu 72% aus 1-kettigem Material besteht.
Die Substratlösung (100 mM Tris/106 mM NaCl) wurde in einer Konzentration von 50 mM eingesetzt.

The test system of experiment [2] is CHO-Zellen. In words: t-PA production in transformed CHO cells, serum-free medium (DCA or determination method not given).
Text: Diese Zell-Linie, eine Dihydrofolat Reduktase negative Mutante (DHFR-), ist für eine DHFR-abhängige Selektion der transfizierten Zellklone geeignet. […] Die Promotorregion für das in Frage kommende Gen und für das DHFR-Gen stammt aus SV 40 und die Terminationsregion für beide Gene von einem Hepatitis B-Oberflächenantigen.
Im folgenden Beispiel wird ein nachseziertes DMEM/Ham's F 12 Medium (1:1) (Gibco) als serumfreies Medium verwendet. Als Zusatz wird fötales Kälberserum (FKS) in einer Konzentration von 7,5% oder 1-2% verwendet.
as §2, §3, §4
Für die Produktion von t-PA in serumfreiem Medium wurden die Zellen zuvor 3-4 Tage in einem Medium von 1-2% FKS adaptiert, wieder abzentrifugiert und das Zellpellet in serumfreiem Medium resuspendiert und anschließend in 2 cm² 24 Wells-Platten in einer Zelldichte von 0,4-0,5 x 10⁶ Zellen/ml überführt.
as §5
Die Aktivität des Enzyms wurde anhand dieses vorgegebenen Standards berechnet.

Experiment [3] relates to CHO-Zellen. Put plainly: t-PA production in transformed CHO cells, medium and determination method not stated. Conditions: 10 mM; for activation at 10000 µM: CHO.
Text: as §1, §2, §3, §4
Aliquots von Zellüberständen und Zellextrakten wurden zu verschiedenen Zeitpunkten abgenommen bzw. hergestellt. Die Messung der Proben erfolgte entweder sofort oder nach Aufbewahrung bei -20°C mit folgenden Methoden: […]

Setting [4] is: Table 8, 7,5% FKS, bracketed value = concentration of the single sample.
Setting [5] is: Table 8, mean ± SE, n = 6-19, runs of 3 days, added day 0 to 2, 7,5% FKS, 1 ml supernatant vs control (0%).
Where [6] appears, read: Table 8, single sample, 7,5% FKS, 1 ml supernatant vs control (0%).
[7] abbreviates: Table 3, mean ± SE, n = 3-24, production runs of 3 to 4 days, acids added day 0 to 3, 1 ml supernatant vs control (0%), 7,5% FKS.
[8] abbreviates: Table 3, single sample, 1 ml supernatant vs control (0%), 7,5% FKS, its concentration, addition and sampling day in brackets in Tables 3/3A.
The mark [9] stands for this setting: Table 10, 7,5% FKS, bracketed value = concentration of the single sample.
Where [10] appears, read: Table 10, mean ± SE, runs of 4 days, added day 1, sampled days 2-4, 7,5% FKS, 1 ml supernatant vs control (0%).
The mark [11] stands for this setting: Table 10, single sample (added day 1, sampled day 4), 7,5% FKS, 1 ml supernatant vs control (0%).
Setting [12] is: Table 7, mean ± SE, n = 4-9, runs of 4 days, acids added day 0, 7,5% FKS, 1 ml supernatant vs control (0%).
Where [13] appears, read: Table 7, single sample (added day 0, sampled day 2), 7,5% FKS, 1 ml supernatant vs control (0%).
The mark [14] stands for this setting: Table 3, stimulation of t-PA synthesis, medium with 7,5% FKS, bracketed value = concentration of the single (maximum) sample.
Where [15] appears, read: Table 4, Applikationstag 0, after 48 h growth, 7,5% FKS, 1 mM or 5 mM, 1 ml supernatant vs control (0%), mean ± SE.
The mark [16] stands for this setting: Table 4, Applikationstag 1, after 48 h growth, 7,5% FKS, 1 mM or 5 mM, 1 ml supernatant vs control (0%), mean ± SE.

Structures are written as SMILES. Where two headings read alike, the source gives them in different places.

`N[C@@H](CS)C(=O)O` [L-Cystein]: the “optimaler Dosisbereich” value with CHO-Zellen [1] (setting [4]) is listed as 1-10 mM ( 1mM). The “% Steigerung der t-Pa-Synthese Durchschnitt” value with CHO-Zellen [1] (setting [5]) is 20,9 ± 3,4%. Moreover, the “% Steigerung der t-Pa-Synthese Maximum” value in the experiment with CHO-Zellen [1] (setting [6]) is reported as 41,4%. In addition, the “Maximalwert des Steigerungseffektes erreicht nach” value in the experiment on CHO-Zellen [1] (time to maximal effect (Abb. 15)) stood at 48 h.
On to `CC(=O)C=C(C)CC(C)(C)O` [DHO, 6-Hydroxy-4,6-Dimethyl-3-hepten-2-on], for which the “t-PA Produktion nach der Behandlung” value in the experiment on CHO-Zellen [2] (after 144 h) is on record as “erhöht”.
Regarding `N[C@@H](CCC(=O)N[C@@H](CS)C(=O)NCC(=O)O)C(=O)O` [Glutathion], the “optimaler Dosisbereich” value in the experiment on CHO-Zellen [1] (setting [4]) is listed as 1-10 µM (10µM). Besides, in the experiment on CHO-Zellen [1] (setting [5]), the “% Steigerung der t-Pa-Synthese Durchschnitt” value is given as 16,0 ± 2,0%. For the same compound, the “% Steigerung der t-Pa-Synthese Maximum” value in the experiment with CHO-Zellen [1] (setting [6]) was 30,6%. In addition, in the experiment with CHO-Zellen [1] (text b134), the “effektiver Konzentrationsbereich” value was 1 to 10 µM.
For the compound `O=CO` [Ameisensäure, reference compound], the “% Steigerung der t-PA-Synthese Durchschnitt” value in the experiment on CHO-Zellen [1] (setting [7]) was 6,5 ± 0,9%. The “% Steigerung der t-PA-Synthese Maximum” value in the experiment on CHO-Zellen [1] (setting [8]) is on record as 7,4%. Further, the “optimaler Dosisbereich” value in the experiment on CHO-Zellen [1] (Table 3, stimulation of t-PA synthesis, medium with 7,5% FKS) is listed as 100 µM.
For `CCCC(=O)OCC[N+](C)(C)C.[Cl-]` [BCC, Butyrylcholinchlorid], the “optimaler Dosisbereich” value in the experiment on CHO-Zellen [1] (setting [9]) is 5-10 mM ( 10 mM). Further, the “% Steigerung der t-PA-Synthese Durchschnitt” value with CHO-Zellen [1] (setting [10]) is on record as 38,8 ± 4,4%. Besides, the “% Steigerung der t-PA-Synthese Maximum” value with CHO-Zellen [1] (setting [11]) is listed as 63,9%.
For `CC(O)CC1CCC(C(C)C(=O)O)O1` (stereo not drawn) [Nonactinsäure], the “% Steigerung der t-Pa-Synthese Durchschnitt” value in the experiment with CHO-Zellen [1] (setting [12]) is reported as 30,3 ± 6,5%. In addition, the “% Steigerung der t-Pa-Synthese Maximum” value with CHO-Zellen [1] (setting [13]) is 58,3%.
For `CCCCCc1oc(CCCCCCCCC(=O)O)c(C)c1C` [Furanfettsäure] the same measures were 19,0 ± 3,2% and 32,1%.
Take `O=C(O)CSCC(=O)O` [Thiodiglykolsäure]: in the experiment on CHO-Zellen [1], the “% Steigerung der t-Pa-Synthese Durchschnitt” value is recorded as 18,0 ± 3,8%, the “% Steigerung der t-Pa-Synthese Maximum” value is 31,0% and the “optimaler Dosisbereich” value came out at 1000 µM.
For the compound `CCCC(=O)OCC[N+](C)(C)C.[Br-]` [BCB, Butyrylcholinbromid], the “optimaler Dosisbereich” value in the experiment on CHO-Zellen [1] (setting [9]) is 5-10 mM (2.5 mM). The “% Steigerung der t-PA-Synthese Durchschnitt” value in the experiment with CHO-Zellen [1] (setting [10]) is on record as 29,1 ± 4,4%. Also, the “% Steigerung der t-PA-Synthese Maximum” value in the experiment on CHO-Zellen [1] (setting [11]) is given as 49,6%.
As to `CCCC(=O)O` [Buttersäure], in the experiment with CHO-Zellen [1] (setting [7]), the “% Steigerung der t-PA-Synthese Durchschnitt” value is 41,9 ± 3,8%. In addition, the “% Steigerung der t-PA-Synthese Maximum” value in the experiment on CHO-Zellen [1] (setting [8]) is listed as 68,3%. Also, in the experiment with CHO-Zellen [1] (setting [14]), the “optimaler Dosisbereich” value is listed as 1-5 mM ( 1 mM). Moreover, the “Steigerung der t-PA-Produktion” value in the experiment on CHO-Zellen [1] (setting [15]) is 33,0 ± 5,4%; in the experiment with CHO-Zellen [1] (setting [16]), 40,2 ± 12,2%. Also, the “Stimulierung der t-PA-Produktion” value in the experiment with CHO-Zellen [1] (medium with 7,5% FKS (Abb. 7)) is listed as 18,1 ± 5,7%. In addition, in the experiment on CHO-Zellen [2] (serum-free medium (Abb. 13)), the “t-PA-Synthese, bezogen auf 1 x 10⁶ Zellen” value was above 50 µg/ 1 x 10⁶ Zellen.
Consider `CC(C)C(=O)O` [Isobuttersäure], for which the “% Steigerung der t-PA-Synthese Durchschnitt” value with CHO-Zellen [1] (setting [7]) was 16.6 ± 2,8%. For the same compound, in the experiment on CHO-Zellen [1] (setting [8]), the “% Steigerung der t-PA-Synthese Maximum” value is on record as 32,9%. For the same compound, in the experiment on CHO-Zellen [1] (setting [14]), the “optimaler Dosisbereich” value was 0,6-10 mM (10 mM). Also, the “Steigerung der t-PA-Produktion” value in the experiment with CHO-Zellen [1] (setting [15]) is listed as 20,1 ± 10,7%; with CHO-Zellen [1] (setting [16]), 25,3 ± 5,1%. In the experiment on CHO-Zellen [1] (onset of the increase, medium with 7,5% FKS (Abb. 7)), this compound registered a Produktionssteigerung erst nach of 48 h.
As to `O=C1O[C@H]([C@@H](O)CO)C(O)=C1O` [Ascorbinsäure], the “Wirkung auf die t-PA-Produktion hält an” value with CHO-Zellen [3] (duration of effect) is given as 72 h. In addition, the activation at 10000 µM in the experiment on CHO-Zellen [3] (application day 0, after 24 h (Abb. 14), read-out: Steigerung der t-PA-Synthese) was 15.2%.
On to `O=C(O)C(O)C(O)C(=O)O` (stereo not drawn) [Weinsäure], for which the activation at 10000 µM with CHO-Zellen [3] (read-out: Steigerung der t-PA-Synthese gegenüber der Kontrolle) was determined as 10.3%.
Regarding `CC(C)CC(=O)O` [Isovaleriansäure], in the experiment with CHO-Zellen [1] (setting [7]), the “% Steigerung der t-PA-Synthese Durchschnitt” value was 18,7 ± 2,4%. Also, the “% Steigerung der t-PA-Synthese Maximum” value in the experiment on CHO-Zellen [1] (setting [8]) is reported as 39,3%. Further, the “optimaler Dosisbereich” value in the experiment with CHO-Zellen [1] (setting [14]) was 1-20 mM ( 5 mM). The “Steigerung der t-PA-Produktion” value in the experiment on CHO-Zellen [1] (setting [15]) was 17,2 ± 1,0%; with CHO-Zellen [1] (setting [16]) it was 19,4 ± 1,5%; in the experiment with CHO-Zellen [1] (day 4, medium with 7,5% FKS (Abb. 7)), 8,5%. Further, the “Stimulierung der t-PA-Produktion” value in the experiment on CHO-Zellen [1] (medium with 7,5% FKS (Abb. 7)) was 24,8 ± 0,5%.
